Where no end group is shown, it is not given here.
T1: MMP-2 (Homo sapiens, UniProt P08253)
T1 sequence (P08253 110-660): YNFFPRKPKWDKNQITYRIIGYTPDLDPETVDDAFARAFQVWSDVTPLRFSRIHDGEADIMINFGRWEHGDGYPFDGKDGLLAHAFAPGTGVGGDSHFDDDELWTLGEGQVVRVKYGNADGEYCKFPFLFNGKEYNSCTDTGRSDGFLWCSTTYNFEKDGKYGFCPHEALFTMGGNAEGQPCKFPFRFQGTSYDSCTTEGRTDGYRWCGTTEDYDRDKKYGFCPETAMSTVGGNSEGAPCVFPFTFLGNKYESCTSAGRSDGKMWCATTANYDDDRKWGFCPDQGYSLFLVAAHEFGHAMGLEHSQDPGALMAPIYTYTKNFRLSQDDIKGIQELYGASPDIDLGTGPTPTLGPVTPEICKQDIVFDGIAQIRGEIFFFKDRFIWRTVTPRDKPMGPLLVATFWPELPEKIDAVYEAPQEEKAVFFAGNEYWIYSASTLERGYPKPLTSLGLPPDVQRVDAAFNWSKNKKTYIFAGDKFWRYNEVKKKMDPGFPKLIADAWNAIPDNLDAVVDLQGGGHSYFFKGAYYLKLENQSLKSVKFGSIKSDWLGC


Tests used:
articular cartilage = assay: Competitive binding of free polypeptide or nanoparticles against phage clone C1-3 on articular cartilage; set-up: species or system bovine; settings: for decrease of phage titers versus control without polypeptide: 10 μM polypeptide, FIG. 3
Procedure: Cartilage grafts were harvested with 8 and 4 mm biopsy cutters (two-sided surface 1 cm^2 and 0.25 cm^2). A slice with the intact articular surface was removed to expose the phages only to the cartilage matrix below the surface. Affinity selection was preformed in polystyrene 48-well plates, which were blocked for nonspecific adhesion with a blocking solution containing 1% BSA for 2 hours prior to screening. A total of 5 screening rounds was carried out. In the first round 10^13 and in subsequent rounds 10^12 phage virions per ml were exposed to the cartilage graft, washed with PBS/Tween 20 and eluted at low pH. While the first round was supposed to give a high yield at low stringency, subsequent rounds were carried out with increasing stringency to select stronger binders. Conditions were increased from 4 hours of binding at RT and washing with PBS/0.1% Tween to 30 minutes binding at 37° C. with 220 RPM, washing with PBS/1% Tween 20 and the cartilage surface decreased from 1 cm^2 to 0.25 cm^2 in round five. Eluted phage was amplified overnight in E. coli strain TG1 in 2×YT medium and purified by two times PEG/NaCl (2M, 25%) precipitation. In the first round of screening, negative screens against the intact articular surface as well as synovial fluid (50% diluted in PBS to lower viscosity) were carried out in order to eliminate phages binding to these targets. Quantitative titer counts were obtained by spot titering of 15 μl of phage/bacterial culture onto LB-agar/tetracyclin plates and are given in transducing units(TU)/ml. The polypeptide sequences of affinity selected phage specific to the articular cartilage matrix was determined by DNA sequencing (Microsynth AG, Balgach, Switzerland) using the sequencing primer 5′-CAT GTA CCG TAA CAC TGA G (SEQ ID NO:5). Binding specificity was determined by exposing selected phage clones (10^8 TU/ml) to articular cartilage (0.25 cm^2) with and without synovial fluid, to synovial membrane (3×4 mm, 0.24 cm^2) and to polystyrene after blocking. […] The phage clones were identified by DNA sequencing and the corresponding titer counts calculated. For comepetetive binding against free polypeptide or nanoparticles and to obtain a dose-response curve, 10^8 TU/ml of phage and its free polypeptide in different concentrations or nanoparticles were mixed, exposed to articular cartilage and titer counts determined. […]
Based on affinity selection and the binding assays reported herein, the 6-mer polypeptide insert WYRGRL (SEQ ID NO:1) of clone C1-3 as well as its scrambled mismatch YRLGRW (SEQ ID NO:6) were synthesized on solid resin using standard Fmoc chemistry. […] A dose-response curve was determined by serial dilutions of the polypeptide ranging from 50 nM to 10 μM and mixing them with 10^8 TU/ml of phage. […]

MMP-2 = target: T1, MMP-2; assay: MMP-2 zymography; assay type: biochemical

IC50 (articular cartilage; polypeptide 50 nM to 10 μM mixed with 10^8 TU/ml phage C1-3, estimated from curve in FIG. 2, read-out: IC50, inhibition of cartilage binding of phage C1-3) | decrease of titer counts of recovered phage over the dose-response curve (articular cartilage; polypeptide increased from 50 nM to 10 μM, FIG. 2) | inhibition of MMP-2 activity (MMP-2; equimolar amount of trTIMP-3) | activity of the purified protein (MMP-2; inferred from MMP-2 zymography at equimolar amount) | Molecule | decrease of phage titers versus control without polypeptide (articular cartilage)
~200 nM | two orders of magnitude |  |  | WYRGRLC [synthetic polypeptide: insert WYRGRL of clone C1-3 with a cysteine added to the C-terminus] | ~100 fold
 |  |  |  | YRLGRWC (Ac-YRLGRWC) [scrambled mismatch polypeptide of WYRGRL with C-terminal cysteine, reference compound] | did not result in a significant decrease in phage titer
 |  | completely inhibits | ~100% | trTIMP-3: fusion protein of N-TIMP-3 (Cys24 to Asn 143) containing WYRGRL at the C-terminus (protein) CTCSPSHPQDAFCNSDIVIRAKVVGKKLVKEGPFGTLVYTIKQMKMYRGFSKMPHVQYIHTEASESLCGLKLEVNKYQYLLTGRVYEGKMYTGLCNFVERWDHLTLSQRKGLNYRYHLGCGGGWYRGRL | 

Reference: US7592009B2, “Polypeptide ligands for targeting cartilage and methods of use thereof” (Ecole Polytechnique Federale de Lausanne (EPFL), priority 2006, dated 2009)
